Test system: MV-4-11 cells
Test: Gene expression microarray analysis (Affymetrix PrimeView) and GSEA
Assay type: cell-based, human
Set-up: RFU PODN (11730768_x_at) / Fold change /veh PODN (11730768_x_at) / RFU LINC00158 (11744669_a_at) / Fold change /veh LINC00158 (11744669_a_at) / RFU DUSP10 (11751237_a_at) / Fold change /veh DUSP10 (11751237_a_at) / RFU ID3 (11757404_x_at) / Fold change /veh ID3 (11757404_x_at) / RFU PLEKHG5 (11737974_s_at) / Fold change /veh PLEKHG5 (11737974_s_at) / RFU LRRC4B (11730491_at) / Fold change /veh LRRC4B (11730491_at) / RFU GIMAP4 (11747438_a_at) / Fold change /veh GIMAP4 (11747438_a_at) / RFU KRT8 (11758183_x_at) / Fold change /veh KRT8 (11758183_x_at) / RFU CNN1 (11734310_a_at) / Fold change /veh CNN1 (11734310_a_at) / RFU VPS37D (11726825_at) / Fold change /veh VPS37D (11726825_at) / RFU C10orf10 (11716522_x_at) / Fold change /veh C10orf10 (11716522_x_at) / RFU KIR2DL2 /// KIR2DL4 /// KIR2DL5A /// KIR2DL5B /// KIR2DS1 /// KIR2DS2 /// KIR2DS3 /// KIR2DS4 /// KIR3DL3 /// KIR3DL3 /// KIR3DS1 (11738374_at) / Fold change /veh KIR2DL2 /// KIR2DL4 /// KIR2DL5A /// KIR2DL5B /// KIR2DS1 /// KIR2DS2 /// KIR2DS3 /// KIR2DS4 /// KIR3DL3 /// KIR3DL3 /// KIR3DS1 (11738374_at) / RFU C1QL1 (11718748_at) / Fold change /veh C1QL1 (11718748_at) / RFU TMPRSS4 (11747572_a_at) / Fold change /veh TMPRSS4 (11747572_a_at) / RFU HAMP (11756126_x_at) / Fold change /veh HAMP (11756126_x_at) / RFU RNFT2 (11725882_a_at) / Fold change /veh RNFT2 (11725882_a_at) / RFU NR4A2 (11747474_a_at) / Fold change /veh NR4A2 (11747474_a_at) / RFU ABCC12 (11746883_a_at) / Fold change /veh ABCC12 (11746883_a_at) / RFU TMEM136 (11760407_x_at) / Fold change /veh TMEM136 (11760407_x_at) / RFU CLDN22 /// WWC2 (11732394_at) / Fold change /veh CLDN22 /// WWC2 (11732394_at) / RFU HLA-DPB1 (11760878_x_at) / Fold change /veh HLA-DPB1 (11760878_x_at) / RFU SPINT1 (11716480_a_at) / Fold change /veh SPINT1 (11716480_a_at) / RFU GAP43 (11754022_s_at) / Fold change /veh GAP43 (11754022_s_at) / RFU A4GNT (11735810_at) / Fold change /veh A4GNT (11735810_at) / RFU PRB3 (11715151_x_at) / Fold change /veh PRB3 (11715151_x_at) / RFU TUBB4B (11761932_at) / Fold change /veh TUBB4B (11761932_at) / RFU CAPN14 (11732068_a_at) / Fold change /veh CAPN14 (11732068_a_at) / RFU TMCC2 (11721928_a_at) / Fold change /veh TMCC2 (11721928_a_at) / RFU IRGQ (11745062_a_at) / Fold change /veh IRGQ (11745062_a_at) / RFU FAM174B (11720279_a_at) / Fold change /veh FAM174B (11720279_a_at) / RFU TMPRSS4 (11748680_a_at) / Fold change /veh TMPRSS4 (11748680_a_at) / RFU FAM212B (11763350_a_at) / Fold change /veh FAM212B (11763350_a_at) / RFU PLEKHG5 (11743358_a_at) / Fold change /veh PLEKHG5 (11743358_a_at) / RFU ZSCAN30 (11745921_a_at) / Fold change /veh ZSCAN30 (11745921_a_at) / RFU CMKLR1 (11741424_a_at) / Fold change /veh CMKLR1 (11741424_a_at) / RFU LOC101060620 /// MAPK8IP1 (11723275_at) / Fold change /veh LOC101060620 /// MAPK8IP1 (11723275_at) / RFU SPTSSB (11747773_x_at) / Fold change /veh SPTSSB (11747773_x_at) / RFU PRSS12 (11739890_at) / Fold change /veh PRSS12 (11739890_at) / RFU BIN1 (11741810_x_at) / Fold change /veh BIN1 (11741810_x_at) / RFU WNT11 (11732464_a_at) / Fold change /veh WNT11 (11732464_a_at) / RFU C10orf10 (11716521_a_at) / Fold change /veh C10orf10 (11716521_a_at) / RFU C5orf56 (11738089_at) / Fold change /veh C5orf56 (11738089_at) / RFU CYB561 (11721691_x_at) / Fold change /veh CYB561 (11721691_x_at) / RFU ANKRD19P (11752326_a_at) / Fold change /veh ANKRD19P (11752326_a_at) / RFU OR2T12 /// OR2T33 /// OR2T8 (11738714_s_at) / Fold change /veh OR2T12 /// OR2T33 /// OR2T8 (11738714_s_at) / RFU VCAN (11748164_a_at) / Fold change /veh VCAN (11748164_a_at) / RFU JSRP1 (11732532_at) / Fold change /veh JSRP1 (11732532_at) / RFU KRTAP10-11 (11738290_x_at) / Fold change /veh KRTAP10-11 (11738290_x_at) / RFU MYO3A (11730013_a_at) / Fold change /veh MYO3A (11730013_a_at) / RFU EBF3 (11725865_a_at) / Fold change /veh EBF3 (11725865_a_at) / RFU CAMK2N1 (11719241_x_at) / Fold change /veh CAMK2N1 (11719241_x_at) / RFU C5orf56 (11738088_a_at) / Fold change /veh C5orf56 (11738088_a_at) / RFU OLFML3 (11715873_a_at) / Fold change /veh OLFML3 (11715873_a_at) / RFU LOC100653217 /// NTM (11731650_a_at) / Fold change /veh LOC100653217 /// NTM (11731650_a_at) / RFU MAPK11 (11762145_a_at) / Fold change /veh MAPK11 (11762145_a_at) / RFU FIZ1 (11724087_x_at) / Fold change /veh FIZ1 (11724087_x_at) / RFU OASL (11726364_x_at) / Fold change /veh OASL (11726364_x_at) / RFU SOX15 (11748057_x_at) / Fold change /veh SOX15 (11748057_x_at) / RFU CD79A (11719716_a_at) / Fold change /veh CD79A (11719716_a_at) / RFU HIST1H1D (11736915_at) / Fold change /veh HIST1H1D (11736915_at) / RFU CASKIN2 (11723855_a_at) / Fold change /veh CASKIN2 (11723855_a_at) / RFU LOC730098 (11760151_x_at) / Fold change /veh LOC730098 (11760151_x_at) / RFU OR4N2 (11742367_at) / Fold change /veh OR4N2 (11742367_at) / RFU PRRT2 (11749266_a_at) / Fold change /veh PRRT2 (11749266_a_at) / RFU SNX32 (11753110_a_at) / Fold change /veh SNX32 (11753110_a_at) / RFU CDHR5 (11726645_a_at) / Fold change /veh CDHR5 (11726645_a_at) / RFU RCAN1 (11760418_a_at) / Fold change /veh RCAN1 (11760418_a_at) / RFU FAM167A (11723789_a_at) / Fold change /veh FAM167A (11723789_a_at) / RFU FAM26E (11764081_at) / Fold change /veh FAM26E (11764081_at) / RFU ISYNA1 (11749810_s_at) / Fold change /veh ISYNA1 (11749810_s_at) / RFU ACY1 (11761880_at) / Fold change /veh ACY1 (11761880_at) / RFU 11764098_at / Fold change /veh 11764098_at / RFU SAMD14 (11745864_x_at) / Fold change /veh SAMD14 (11745864_x_at) / RFU NPB (11741838_a_at) / Fold change /veh NPB (11741838_a_at) / RFU TMPRSS6 (11731388_a_at) / Fold change /veh TMPRSS6 (11731388_a_at) / RFU KRTAP10-2 (11738614_at) / Fold change /veh KRTAP10-2 (11738614_at) / RFU ARHGAP8 /// PRR5-ARHGAP8 (11727945_x_at) / Fold change /veh ARHGAP8 /// PRR5-ARHGAP8 (11727945_x_at) / RFU KRTAP5-7 /// NADSYN1 (11734609_at) / Fold change /veh KRTAP5-7 /// NADSYN1 (11734609_at) / RFU RASL12 (11751679_a_at) / Fold change /veh RASL12 (11751679_a_at) / RFU CDKN2B (11736163_a_at) / Fold change /veh CDKN2B (11736163_a_at) / RFU PRF1 (11729649_at) / Fold change /veh PRF1 (11729649_at) / RFU, ZNF638 /// ZNF638-IT1 / Fold change vs veh, ZNF638 /// ZNF638-IT1 / RFU, PANK3 / Fold change vs veh, PANK3 / RFU, SH3YL1 / Fold change vs veh, SH3YL1 / RFU, ZEB2 / Fold change vs veh, ZEB2 / RFU, NRIP1 / Fold change vs veh, NRIP1 / RFU, PTTG1IP / Fold change vs veh, PTTG1IP / RFU, CAPN2 / Fold change vs veh, CAPN2 / RFU, MED14 / Fold change vs veh, MED14 / RFU, SNORA58 / Fold change vs veh, SNORA58 / RFU, C1orf63 / Fold change vs veh, C1orf63 / RFU, LRRFIP1 / Fold change vs veh, LRRFIP1 / RFU, NDUFAF7 / Fold change vs veh, NDUFAF7 / RFU, SLC12A2 / Fold change vs veh, SLC12A2 / RFU, IBTK / Fold change vs veh, IBTK / RFU, ESF1 / Fold change vs veh, ESF1 / Fold change vs veh, TMEM50B / RFU, TAOK1 / Fold change vs veh, TAOK1 / RFU, ACBD3 / Fold change vs veh, ACBD3 / RFU, TMA16 / Fold change vs veh, TMA16 / RFU, RWDD3 / Fold change vs veh, RWDD3 / RFU, BCAT1 / Fold change vs veh, BCAT1 / RFU, EDEM3 / Fold change vs veh, EDEM3 / RFU, TMEM33 / Fold change vs veh, TMEM33 / RFU, WDR75 / Fold change vs veh, WDR75 / RFU, AHCTF1 / Fold change vs veh, AHCTF1 / RFU, TFRC / Fold change vs veh, TFRC / RFU, ZDHHC17 / Fold change vs veh, ZDHHC17 / RFU, NOM1 / Fold change vs veh, NOM1 / RFU, ARL8B / Fold change vs veh, ARL8B / RFU, ZBTB11 / Fold change vs veh, ZBTB11 / RFU, TAMM41 / Fold change vs veh, TAMM41 / RFU, KIAA1704 /// LOC100996395 / Fold change vs veh, KIAA1704 /// LOC100996395 / RFU, ING1 / Fold change vs veh, ING1 / RFU, TRMT61B / Fold change vs veh, TRMT61B / RFU, FUBP3 / Fold change vs veh, FUBP3 / RFU, TP53 / Fold change vs veh, TP53 / RFU, TNKS2 / Fold change vs veh, TNKS2 / RFU, ZFP14 / Fold change vs veh, ZFP14 / RFU, ACTR2 / Fold change vs veh, ACTR2 / RFU, PPP3R1 / Fold change vs veh, PPP3R1 / RFU, PIK3R1 / Fold change vs veh, PIK3R1 / RFU, HNRNPA1 / Fold change vs veh, HNRNPA1 / RFU, RNF170 / Fold change vs veh, RNF170 / RFU, ZNF28 / Fold change vs veh, ZNF28 / RFU, RNGTT / Fold change vs veh, RNGTT / RFU, OGT / Fold change vs veh, OGT / RFU, BRD1 / Fold change vs veh, BRD1 / RFU, MARS / Fold change vs veh, MARS / RFU, ZNF655 / Fold change vs veh, ZNF655 / RFU, FAHD1 / Fold change vs veh, FAHD1 / RFU, BDP1 / Fold change vs veh, BDP1 / RFU, LRRCC1 / Fold change vs veh, LRRCC1 / RFU, ARID1A / Fold change vs veh, ARID1A / RFU, ZNF146 / Fold change vs veh, ZNF146 / RFU, ZNF330 / Fold change vs veh, ZNF330 / RFU, GPN3 / Fold change vs veh, GPN3 / RFU, C9orf123 / Fold change vs veh, C9orf123 / RFU, N4BP2L2 / Fold change vs veh, N4BP2L2 / RFU, ARFIP1 / Fold change vs veh, ARFIP1 / RFU, FAM179B / Fold change vs veh, FAM179B / RFU, BCL10 / Fold change vs veh, BCL10 / RFU, UHRF1BP1L / Fold change vs veh, UHRF1BP1L / RFU, BET1 / Fold change vs veh, BET1 / RFU, CNOT2 / Fold change vs veh, CNOT2 / RFU, ZNF268 / Fold change vs veh, ZNF268 / Fold change vs veh, ZNF507 / RFU, DGCR2 / Fold change vs veh, DGCR2 / RFU, WDSUB1 / Fold change vs veh, WDSUB1 / Fold change vs veh, HSP90B1 /// MIR3652 / RFU, ADSS / Fold change vs veh, ADSS / RFU, GK / Fold change vs veh, GK / RFU, ZNF148 / Fold change vs veh, ZNF148 / RFU, TAF9 / Fold change vs veh, TAF9 / RFU, SLC1A5 / Fold change vs veh, SLC1A5 / RFU, SLMO2 / Fold change vs veh, SLMO2 / RFU, ABCC4 / Fold change vs veh, ABCC4 / RFU, LOC101060439 /// RAP1B / Fold change vs veh, LOC101060439 /// RAP1B / RFU, RFX7 / Fold change vs veh, RFX7 / RFU, GTPBP10 / Fold change vs veh, GTPBP10 / RFU, CNEP1R1 / Fold change vs veh, CNEP1R1 / RFU, BIVM-ERCC5 /// ERCC5 / Fold change vs veh, BIVM-ERCC5 /// ERCC5 / RFU, ILF3 / Fold change vs veh, ILF3 / RFU 11762660_at / Fold change /veh 11762660_at / RFU VCAN (11757783_s_at) / Fold change /veh VCAN (11757783_s_at) / RFU DDX43 (11728927_at) / Fold change /veh DDX43 (11728927_at) / RFU KRT8 (11758188_x_at) / Fold change /veh KRT8 (11758188_x_at) / RFU NKD1 (11759106_at) / Fold change /veh NKD1 (11759106_at) / RFU SRD5A1 (11742802_a_at) / Fold change /veh SRD5A1 (11742802_a_at) / RFU TPSAB1 /// TPSB2 (11721975_s_at) / Fold change /veh TPSAB1 /// TPSB2 (11721975_s_at) / RFU GSTM3 (11746129_a_at) / Fold change /veh GSTM3 (11746129_a_at) / RFU IL23R (11737362_x_at) / Fold change /veh IL23R (11737362_x_at) / RFU TMEM51 (11727254_a_at) / Fold change /veh TMEM51 (11727254_a_at) / RFU PIWIL2 (11732686_x_at) / Fold change /veh PIWIL2 (11732686_x_at) / RFU ORM1 (11744905_x_at) / Fold change /veh ORM1 (11744905_x_at) / RFU CCDC152 (11743942_at) / Fold change /veh CCDC152 (11743942_at) / RFU ECM1 (11717891_a_at) / Fold change /veh ECM1 (11717891_a_at) / RFU IL23R (11748794_a_at) / Fold change /veh IL23R (11748794_a_at) / RFU TNFAIP8L3 (11732012_x_at) / Fold change /veh TNFAIP8L3 (11732012_x_at) / RFU MBOAT4 (11741988_at) / Fold change /veh MBOAT4 (11741988_at) / RFU 11764193_at / Fold change /veh 11764193_at / RFU TMEM53 (11763286_at) / Fold change /veh TMEM53 (11763286_at) / RFU MAGEB2 (11727129_at) / Fold change /veh MAGEB2 (11727129_at) / RFU TMEM200A (11744735_a_at) / Fold change /veh TMEM200A (11744735_a_at) / RFU CCDC152 (11751479_a_at) / Fold change /veh CCDC152 (11751479_a_at) / RFU FAM211A (11726209_a_at) / Fold change /veh FAM211A (11726209_a_at) / RFU RGS16 (11746705_a_at) / Fold change /veh RGS16 (11746705_a_at) / RFU VCAN (11755009_s_at) / Fold change /veh VCAN (11755009_s_at) / RFU RHOB (11743442_s_at) / Fold change /veh RHOB (11743442_s_at) / RFU RGS16 (11720943_a_at) / Fold change /veh RGS16 (11720943_a_at) / RFU RGS16 (11720944_at) / Fold change /veh RGS16 (11720944_at) / RFU, VPS4B / Fold change vs veh, VPS4B / RFU, CREB1 / Fold change vs veh, CREB1 / RFU, DNAJC13 / Fold change vs veh, DNAJC13 / RFU, GNAQ / Fold change vs veh, GNAQ / RFU, CDK5R1 / Fold change vs veh, CDK5R1 / RFU, ZRANB3 / Fold change vs veh, ZRANB3 / RFU, CUL4A / Fold change vs veh, CUL4A / RFU, CCNY / Fold change vs veh, CCNY / RFU, UFL1 / Fold change vs veh, UFL1 / RFU, COG3 / Fold change vs veh, COG3 / RFU, DIAPH2 / Fold change vs veh, DIAPH2 / RFU, SKA2 / Fold change vs veh, SKA2 / RFU, AFF3 / Fold change vs veh, AFF3 / RFU, LMF1 / Fold change vs veh, LMF1 / RFU, IPO11 / Fold change vs veh, IPO11 / RFU, DFFB / Fold change vs veh, DFFB / RFU, FOXP1 / Fold change vs veh, FOXP1 / RFU, CARD8 / Fold change vs veh, CARD8 / RFU, STRN3 / Fold change vs veh, STRN3 / RFU, ADK / Fold change vs veh, ADK / RFU, RASSF2 / Fold change vs veh, RASSF2 / RFU, WIPF1 / Fold change vs veh, WIPF1 / RFU, LARP1B / Fold change vs veh, LARP1B / RFU, RASA1 / Fold change vs veh, RASA1 / RFU, RB1 / Fold change vs veh, RB1 / RFU, PPFIA1 / Fold change vs veh, PPFIA1 / RFU, MAT2A / Fold change vs veh, MAT2A / RFU, CCT5 / Fold change vs veh, CCT5 / RFU, WDR92 / Fold change vs veh, WDR92 / RFU, CUX1 / Fold change vs veh, CUX1 / RFU, TTC7A / Fold change vs veh, TTC7A / RFU, TMEM135 / Fold change vs veh, TMEM135 / RFU, DEPTOR / Fold change vs veh, DEPTOR / RFU, CPM / Fold change vs veh, CPM / RFU, DNAJB6 / Fold change vs veh, DNAJB6 / RFU, CACNA2D3 / Fold change vs veh, CACNA2D3 / RFU, DTX4 / Fold change vs veh, DTX4 / RFU, TFCP2 / Fold change vs veh, TFCP2 / RFU, GMCL1 /// GMCL1P1 / Fold change vs veh, GMCL1 /// GMCL1P1 / RFU, AEBP2 / Fold change vs veh, AEBP2 / RFU, SNHG1 /// SNORD22 /// SNORD25 /// SNORD26 /// SNORD27 /// SNORD28 /// SNORD29 /// SNORD31 / Fold change vs veh, SNHG1 /// SNORD22 /// SNORD25 /// SNORD26 /// SNORD27 /// SNORD28 /// SNORD29 /// SNORD31 / Fold change (Aza/veh), C12orf56 (ProbeSet 11735607_a_at) / Fold change (ACY-1035/veh), C12orf56 (ProbeSet 11735607_a_at) / Fold change (Aza/veh), FGFR1OP (ProbeSet 11751329_s_at) / Fold change (ACY-1035/veh), FGFR1OP (ProbeSet 11751329_s_at) / Fold change (Aza/veh), VPS36 (ProbeSet 11739960_a_at) / Fold change (ACY-1035/veh), VPS36 (ProbeSet 11739960_a_at) / RFU SYPL1 (11715823_x_at) / Fold change /veh SYPL1 (11715823_x_at) / RFU IGFBP7 (11715501_s_at) / Fold change /veh IGFBP7 (11715501_s_at) / RFU REEP3 (11722064_at) / Fold change /veh REEP3 (11722064_at) / RFU IGLL1 (11728026_x_at) / Fold change /veh IGLL1 (11728026_x_at): dose or concentration left out as unconfirmed
Settings: ProbeSet 11715478_a_at; LIST B

Compound: Nc1ncn([C@@H]2O[C@H](CO)[C@@H](O)[C@H]2O)c(=O)n1 [azacitidine]
- RFU, TFRC: 131.21 RFU

— article PMC5218480 (PLoS ONE, 2017)
